From US20230322761A1, “DEGRADATION OF BRUTON'S TYROSINE KINASE (BTK) BY CONJUGATION OF BTK INHIBITORS WITH E3 LIGASE LIGAND AND METHODS OF USE” (BEIGENE, LTD., priority 2020, published 2023) come the findings set out here.

Broadly, the DC50 is the midpoint of the concentration-degradation curve. Low values mean degradation at low concentration, high ones degradation only at high concentration. In general, Dmax refers to the greatest extent of degradation seen.

The target in the assay is T1, BTK (Homo sapiens, UniProt Q06187).
T1 construct: endogenous in cells; host or cells: TMD-8 cells
T1 sequence (Q06187 whole entry): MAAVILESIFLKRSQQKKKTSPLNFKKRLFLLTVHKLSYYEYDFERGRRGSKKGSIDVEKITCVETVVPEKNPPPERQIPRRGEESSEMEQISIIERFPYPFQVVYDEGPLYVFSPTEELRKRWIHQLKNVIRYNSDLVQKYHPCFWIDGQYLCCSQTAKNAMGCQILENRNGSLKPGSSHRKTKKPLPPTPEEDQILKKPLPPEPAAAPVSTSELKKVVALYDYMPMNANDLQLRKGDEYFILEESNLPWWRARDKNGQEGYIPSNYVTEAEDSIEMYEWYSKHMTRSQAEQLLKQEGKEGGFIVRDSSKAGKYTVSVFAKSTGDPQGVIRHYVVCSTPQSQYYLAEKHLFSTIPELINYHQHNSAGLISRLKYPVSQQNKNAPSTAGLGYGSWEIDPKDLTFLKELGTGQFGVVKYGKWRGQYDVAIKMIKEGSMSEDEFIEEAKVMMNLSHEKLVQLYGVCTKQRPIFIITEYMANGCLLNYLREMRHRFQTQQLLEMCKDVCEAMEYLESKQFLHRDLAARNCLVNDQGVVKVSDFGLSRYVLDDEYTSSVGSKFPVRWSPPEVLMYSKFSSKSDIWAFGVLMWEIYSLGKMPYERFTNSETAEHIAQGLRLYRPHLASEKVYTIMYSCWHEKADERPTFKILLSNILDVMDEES
The assay can be described thus: BTK degradation in TMD-8 cells, HTRF assay after 6 h treatment. It is filed as cell-based. The following applies: for DC50: IC50 (DC50) of BTK degradation. The gist of the method: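 Remaining BTK was quantified by HTRF in lysates of TMD-8 cells after 6 h exposure to an 8-point, 6-fold compound series (500× stocks in DMSO starting at 1 mM; 0.2% DMSO). Lysis 30 min, antibodies overnight at room temperature, ratio read at 665/620 nm; DC50 fitted with a four-parameter logistic equation.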
On the technique in general: Time-resolved FRET reads energy transfer from a long-lived donor to a nearby acceptor.

With `COc1cc(OCCCN2CCC(c3ccc(-c4cnc5[nH]nc(-c6ccc(CNC(=O)c7nc(C(C)(C)C)no7)c(C)c6)c5c4)cc3)CC2)ccc1C1CCC(=O)NC1=O` (stereo not shown) [Example 30, 3-(tert-butyl)-N-(4-(5-(4-(1-(3-(4-(2,6-dioxopiperidin-3-yl)-3-methoxyphenoxy)propyl)piperidin-4-yl)phenyl)-1H-pyrazolo[3,4-b]pyridin-3-yl)-2-methylbenzyl)-1,2,4-oxadiazole-5-carboxamide], the DC50 came out at 8.19 nM. In addition, the greatest degradation seen (Dmax) (TMD8, maximum percentage of inhibition (degradation)) came to 97.5%.

In turn, `Cc1cc(-c2n[nH]c3ncc(-c4ccc(N5CCN(C6CC(c7ccc(C8CCC(=O)NC8=O)cc7)C6)CC5)cc4)cc23)ccc1[C@@H](C)NC(=O)c1noc(C(C)(C)C)n1` (stereo partly drawn) [Example 214, 5-(tert-butyl)-N-((1R)-1-(4-(5-(4-(4-((1s,3s)-3-(4-(2,6-dioxopiperidin-3-yl)phenyl)cyclobutyl)piperazin-1-yl)phenyl)-1H-pyrazolo[3,4-b]pyridin-3-yl)-2-methylphenyl)ethyl)-1,2,4-oxadiazole-3-carboxamide] came in with a DC50 of 1.3 nM.

On to `Cc1cc(CCN2CCN(c3ccc(-c4cnc5[nH]nc(-c6ccc([C@@H](C)NC(=O)c7noc(C(C)(C)C)n7)c(C)c6)c5c4)cc3)CC2)ncc1C1CCC(=O)NC1=O` (stereo partly drawn) [Example 141, 5-(tert-butyl)-N-((1R)-1-(4-(5-(4-(4-(2-(5-(2,6-dioxopiperidin-3-yl)-4-methylpyridin-2-yl)ethyl)piperazin-1-yl)phenyl)-1H-pyrazolo[3,4-b]pyridin-3-yl)-2-methylphenyl)ethyl)-1,2,4-oxadiazole-3-carboxamide], for which the half-maximal degradation concentration (DC50) was found to be 3.27 nM.

Turning to `Cc1cc(-c2n[nH]c3ncc(-c4ccc(N5CCN(C6CCC(c7ccc(C8CCC(=O)NC8=O)c(F)c7)C6)CC5)cc4)cc23)ccc1[C@@H](C)NC(=O)c1nc(C(C)(C)C)no1` (stereo partly drawn) [Example 216, 3-(tert-butyl)-N-((1R)-1-(4-(5-(4-(4-(3-(4-(2,6-dioxopiperidin-3-yl)-3-fluorophenyl)cyclopentyl)piperazin-1-yl)phenyl)-1H-pyrazolo[3,4-b]pyridin-3-yl)-2-methylphenyl)ethyl)-1,2,4-oxadiazole-5-carboxamide], the DC50 came out at 10.5 nM.

On to `Cc1cc(-c2n[nH]c3ncc(-c4ccc(C5CCN(CCc6ccc(C7CCC(=O)NC7=O)cc6)CC5)cc4)cc23)ccc1[C@@H](C)NC(=O)c1noc(C(C)(C)C)n1` (stereo partly drawn) [Example 227, 5-(tert-butyl)-N-((1R)-1-(4-(5-(4-(1-(4-(2,6-dioxopiperidin-3-yl)phenethyl)piperidin-4-yl)phenyl)-1H-pyrazolo[3,4-b]pyridin-3-yl)-2-methylphenyl)ethyl)-1,2,4-oxadiazole-3-carboxamide], for which the DC50 worked out at 3.93 nM.

In turn, `Cc1cc(CCN2CCC(c3ccc(-c4cnc5[nH]nc(-c6ccc([C@@H](C)NC(=O)c7noc(C(C)(C)C)n7)c(C)c6)c5c4)nc3)CC2)ncc1C1CCC(=O)NC1=O` (stereo partly drawn) [Example 145, 5-(tert-butyl)-N-((1R)-1-(4-(5-(5-(1-(2-(5-(2,6-dioxopiperidin-3-yl)-4-methylpyridin-2-yl)ethyl)piperidin-4-yl)pyridin-2-yl)-1H-pyrazolo[3,4-b]pyridin-3-yl)-2-methylphenyl)ethyl)-1,2,4-oxadiazole-3-carboxamide] showed a 50% degradation concentration (DC50) of 1.22 nM. This DC50 is about 3.2-fold lower than that of the molecule before.

Regarding `Cc1cc(CCN2CCN(c3ccc(-c4cnc5[nH]nc(-c6ccc([C@@H](C)NC(=O)c7nc(C(C)(C)C)no7)c(C)c6)c5c4)cc3)CC2)ncc1C1CCC(=O)NC1=O` (stereo partly drawn) [Example 154, 3-(tert-butyl)-N-((1R)-1-(4-(5-(4-(4-(2-(5-(2,6-dioxopiperidin-3-yl)-4-methylpyridin-2-yl)ethyl)piperazin-1-yl)phenyl)-1H-pyrazolo[3,4-b]pyridin-3-yl)-2-methylphenyl)ethyl)-1,2,4-oxadiazole-5-carboxamide], the DC50 was 3.27 nM.

For `Cc1cc(-c2n[nH]c3ncc(-c4ccc(N5CCN(CC6CCN(c7ccc(N8CCC(=O)NC8=O)cc7)CC6)CC5)cc4)cc23)ccc1[C@@H](C)NC(=O)c1noc(C2(C)CC2)n1` [Example 109, (R)—N-(1-(4-(5-(4-(4-((1-(4-(2,4-dioxotetrahydropyrimidin-1(2H)-yl)phenyl)piperidin-4-yl)methyl)piperazin-1-yl)phenyl)-1H-pyrazolo[3,4-b]pyridin-3-yl)-2-methylphenyl)ethyl)-5-(1-methylcyclopropyl)-1,2,4-oxadiazole-3-carboxamide], it took 13.3 nM to reach half-maximal degradation (DC50).

As for `Cc1cc(CCN2CCN(c3ccc(-c4cnc5[nH]nc(-c6ccc([C@@H](C)NC(=O)c7noc(C(C)(C)C)n7)c(C)c6)c5c4)cc3)CC2)ccc1C1CCC(=O)NC1=O` (stereo partly drawn) [Example 40, 5-(tert-butyl)-N-((1R)-1-(4-(5-(4-(4-(4-(2,6-dioxopiperidin-3-yl)-3-methylphenethyl)piperazin-1-yl)phenyl)-1H-pyrazolo[3,4-b]pyridin-3-yl)-2-methylphenyl)ethyl)-1,2,4-oxadiazole-3-carboxamide], half-maximal degradation (DC50) was put at 7.32 nM.

Molecule `Cc1cc(-c2n[nH]c3ncc(-c4ccc(N5CCN(CCCOc6ccc(NC7CCC(=O)NC7=O)c(F)c6)CC5)cc4)cc23)ccc1[C@@H](C)NC(=O)c1noc(C(C)(C)C)n1` (stereo partly drawn) [Example 142, 5-(tert-butyl)-N-((1R)-1-(4-(5-(4-(4-(3-(4-((2,6-dioxopiperidin-3-yl)amino)-3-fluorophenoxy)propyl)piperazin-1-yl)phenyl)-1H-pyrazolo[3,4-b]pyridin-3-yl)-2-methylphenyl)ethyl)-1,2,4-oxadiazole-3-carboxamide] registered a DC50 of 6.15 nM.

Take `Cc1cc(-c2n[nH]c3ncc(-c4ccc(N5CCN(CC(F)(F)c6ccc(C7CCC(=O)NC7=O)cc6)CC5)cc4)cc23)ccc1[C@@H](C)NC(=O)c1nc(C(C)(C)C)no1` (stereo partly drawn) [Example 188, 3-(tert-butyl)-N-((1R)-1-(4-(5-(4-(4-(2-(4-(2,6-dioxopiperidin-3-yl)phenyl)-2,2-difluoroethyl)piperazin-1-yl)phenyl)-1H-pyrazolo[3,4-b]pyridin-3-yl)-2-methylphenyl)ethyl)-1,2,4-oxadiazole-5-carboxamide]: the 50% degradation concentration (DC50) was found to be 9.91 nM.

On to `Cc1cc(-c2n[nH]c3ncc(-c4ccc(N5CCN(CCc6ccc(C7CCC(=O)NC7=O)c(C)n6)CC5)cc4)cc23)ccc1[C@@H](C)NC(=O)c1noc(C(C)(C)C)n1` (stereo partly drawn) [Example 155, 5-(tert-butyl)-N-((1R)-1-(4-(5-(4-(4-(2-(5-(2,6-dioxopiperidin-3-yl)-6-methylpyridin-2-yl)ethyl)piperazin-1-yl)phenyl)-1H-pyrazolo[3,4-b]pyridin-3-yl)-2-methylphenyl)ethyl)-1,2,4-oxadiazole-3-carboxamide], for which the DC50 came out at 2.92 nM.

In the case of `Cc1cc(-c2n[nH]c3ncc(-c4ccc(N5CCN(CCn6cc(N7CCC(=O)NC7=O)cn6)CC5)cc4)cc23)ccc1[C@@H](C)NC(=O)c1noc(C(C)(C)C)n1` [Example 143, (R)-5-(tert-butyl)-N-(1-(4-(5-(4-(4-(2-(4-(2,4-dioxotetrahydropyrimidin-1(2H)-yl)-1H-pyrazol-1-yl)ethyl)piperazin-1-yl)phenyl)-1H-pyrazolo[3,4-b]pyridin-3-yl)-2-methylphenyl)ethyl)-1,2,4-oxadiazole-3-carboxamide], the half-maximal degradation concentration (DC50) came to 18.8 nM.

Molecule `Cc1cc(-c2n[nH]c3nc(-c4ccc(N5CCN(CC6CCN(c7ccc(N8CCC(=O)NC8=O)cc7)CC6)CC5)cc4)ccc23)ccc1[C@@H](C)NC(=O)c1noc(C(C)(C)C)n1` [Example 157, (R)-5-(tert-butyl)-N-(1-(4-(6-(4-(4-((1-(4-(2,4-dioxotetrahydropyrimidin-1(2H)-yl)phenyl)piperidin-4-yl)methyl)piperazin-1-yl)phenyl)-1H-pyrazolo[3,4-b]pyridin-3-yl)-2-methylphenyl)ethyl)-1,2,4-oxadiazole-3-carboxamide] returned a DC50 of 62.1 nM.

In the case of `Cc1cc(-c2n[nH]c3ncc(-c4ccc(N5CCN(C6CC(c7ccc([C@@H]8CCC(=O)NC8=O)cc7)C6)CC5)cc4)cc23)ccc1[C@@H](C)NC(=O)c1noc(C(C)(C)C)n1` (stereo partly drawn) [Example 209, 5-(tert-butyl)-N—((R)-1-(4-(5-(4-(4-((1R,3s)-3-(4-((S)-2,6-dioxopiperidin-3-yl)phenyl)cyclobutyl)piperazin-1-yl)phenyl)-1H-pyrazolo[3,4-b]pyridin-3-yl)-2-methylphenyl)ethyl)-1,2,4-oxadiazole-3-carboxamide], the 50% degradation concentration (DC50) is 13.6 nM. Compared with the last molecule, the DC50 is about 4.6-fold lower.

In turn, `Cc1cc(-c2n[nH]c3ncc(-c4ccc(N5CCN(CCn6nc(C)c(C7CCC(=O)NC7=O)c6C)CC5)cc4)cc23)ccc1[C@@H](C)NC(=O)c1nc(C(C)(C)C)no1` (stereo partly drawn) [Example 196, 3-(tert-butyl)-N-((1R)-1-(4-(5-(4-(4-(2-(4-(2,6-dioxopiperidin-3-yl)-3,5-dimethyl-1H-pyrazol-1-yl)ethyl)piperazin-1-yl)phenyl)-1H-pyrazolo[3,4-b]pyridin-3-yl)-2-methylphenyl)ethyl)-1,2,4-oxadiazole-5-carboxamide] gave a DC50 of 1.05 nM.

On to `Cc1c([C@@H](C)NC(=O)c2noc(C(C)(C)C)n2)ccc(-c2n[nH]c3ncc(-c4ccc(N5CCN(CC6CCN(c7ccc(N8CCC(=O)NC8=O)cc7)CC6)CC5)cc4)cc23)c1F` [Example 43, (R)-5-(tert-butyl)-N-(1-(4-(5-(4-(4-((1-(4-(2,4-dioxotetrahydropyrimidin-1(2H)-yl)phenyl)piperidin-4-yl)methyl)piperazin-1-yl)phenyl)-1H-pyrazolo[3,4-b]pyridin-3-yl)-3-fluoro-2-methylphenyl)ethyl)-1,2,4-oxadiazole-3-carboxamide], for which the DC50 was determined as 3.44 nM.

Turning to `Cc1cc(-c2n[nH]c3ncc(-c4ccc(N5CCN(CC6CCN(c7ccc(N8CCC(=O)NC8=O)c(C)c7)CC6)CC5)cc4)cc23)ccc1[C@@H](C)NC(=O)c1noc(C(C)(C)C)n1` [Example 39, (R)-5-(tert-butyl)-N-(1-(4-(5-(4-(4-((1-(4-(2,4-dioxotetrahydropyrimidin-1(2H)-yl)-3-methylphenyl)piperidin-4-yl)methyl)piperazin-1-yl)phenyl)-1H-pyrazolo[3,4-b]pyridin-3-yl)-2-methylphenyl)ethyl)-1,2,4-oxadiazole-3-carboxamide], half-maximal degradation (DC50) was put at 2.6 nM.
